Reference: patent US20030095982A1, “Fraction of Cordyceps sinensis and method of isolation thereof” (priority 2001, published 2003)

Assays:
[1] = tested on: platelet aggregation induced by PAF; assay: PAF induced rabbit platelet aggregation in vitro; assay type: cell-based; conditions: 0.625 mM; washed rabbit platelets; PAF 2 nM; preincubated 2 min
Description: In terms of inhibition, PAF induced rabbit platelete aggregation is used as an index of PAF function inhibition. It was used as the first step in vitro screening method for identifying potential substances which are capable of inhibiting PAF function and may improve bronchial hyperresponsiveness in vivo.
Washed platelets were obtained from rabbits. In brief, rabbit blood was collected from the marginal ear vein into tubes containing one-sixth volume of acid-citrate-dextrose as anticoagulant. The blood was centrifuged at 200×g for 15 min at room temperature. The platelet-rich plasma was mixed with 1/40 volume of EDTA (final concentration 5 mM) and re-centrifuged at 1000×g for 12 min. The supernatant was discarded and the platelet pellet was suspended in modified Ca^2+-free Tyrode's buffer (137 mM NaCl, 2.8 mM KCl, 2 mM MgCl2, 0.33 mM NaH2PO4, 5 mM glucose, 10 mM HEPES) with 0.35% bovine serum albumin, heparin (50 unit/ml) and apyrase (1 unit/ml). Following incubation at 37° C. for 20 min, the washed platelet pellet was resuspended in Tyrode's buffer containing 1 mM Ca^2+. The platelet number were counted by using a hemocytometer and adjusted to 3.5×10^8 platelets/ml. […] Aggregation was measured by a turbidimetric method. […] The inhibitory activities of F-4 and F-8 on platelet aggregation induced by PAF were calculated according the equation: [formula]

[2] = tested on: ovalbumin (OA) induced bronchial hyperresponsiveness; assay: Bronchoalveolar lavage cell counts, OA model in BALBc mice; assay type: in vivo
Procedure: After completion of the pulmonary function tests, BAL was performed using 1 mL normal saline twice (total 2 mL). The BAL fluid was collected into plastic flasks containing 1,500 units of heparin and then strained through 1 layer of surgical gauze and centrifuged at 500 g for 5 min. The cell pellet was washed 3 times with sterile saline solution and resuspended in RPMI-1640. A small portion was taken for evaluation of cell number and viability, as assessed by trypan blue exclusion.
Differential counts were obtained using a cytocentrifuge preparation (Cytospin; Shandon Southern Instruments, Sewickley, Pa.) stained with Liu's stain (modified May-Giemsa stain).

[3] = tested on: IFNγ (Th-1 related), IL-4, IL-5, IL-10 (Th-2 related) and iNOS mRNA; assay: Cytokine and iNOS mRNA in lung tissue by RT-PCR; assay type: in vivo, brown Norway rats (BNR); conditions: prophylactic and therapeutic treatment, OA asthma model
Procedure: The in vivo role of F-4 and F8 of Th1/Th2 cytokines by […] mRNA in lung tissue and nuclear factor (NF)κ B activity using an electromobility shift assay (EMSA)
Total RNA was extracted from lung tissue samples by a method described previously and RT-PCR was performed using a RT-PCR kit (Clontech, USA). The following T-cell related cytokines were evaluated by measuring their mRNA expression: IFNγ (Th-1 related) and IL-4, IL-5 and IL-10 (all Th-2 related) and inducible nitric oxide synthase (iNOS).
Briefly, 2 μg of RNA in a 25 μl volume was first primed with 2 μl oligo-(dT)18 primer, 20 μM, at 70° C. for 2 min and then kept on ice for 5 min. after the reaction, a mixture containing the following: 8 μl of 5×reaction buffer; 2 μl, dNTP mix […] (each); 1 μl recombinant Rnase inhibitor, 40 units/μ1; and 2 μl MMLV reverse transcriptase, 200 units/μ1, was added to synthesize cDNA. cDNA was amplified by 40 PCR cycles; each consisting of a denaturation step (94° C. for 1 min), an annealing step (65˜55° C. for 1 min, 0.5° C./cycle touch down, 55° C. for 19 cycles), and an extension step (72° C. for 1 min). During the last cycle the 72° C. step was extended to 5 min. The PCR product was analyzed on 2% agarose gel electrophoresis. The identity of each cytokine cDNA was determined by the size of the PCR product obtained by electrophoresis, and confirmed by DNA sequencing of the PCR products. […]

[4] = tested on: ovalbumin (OA) induced bronchial hyperresponsiveness; assay: Histological examination of lung tissue in asthma model; assay type: in vivo, brown Norway rats (BNR); conditions: prophylactic and therapeutic treatment
Procedure: After BAL, each animal's chest was opened and the lungs were removed. The trachea and right lower lobe was fixed in 10% formaldehyde, dehydrated by different concentrations of alcohol, then embedded in paraffin, and cut into 4 μm thicknesses, stained with haematoxylin and eosin, and examined by light microscope. Histologic specimens (n=6 per each time point) were prepared. The trachea and each lobe were fixed in 10% formaldehyde, dehydrated by different concentrations of alcohol, then embedded in paraffin, and cut into 4 μm thicknesses; stained with haematosylin and eosin, and examined by light microscope for evaluation of the severity of inflammation. Each trachea and lung section was blindly assigned an inflammation score by two pathologists as follows; 1=rare or occasional inflammation cells scattered through the lung or trachea; 3=abundant inflammatory cells scattered through the lung or trachea; 2=inflammatory cells between the levels of 1 and 3. The total inflammation score for each animal was calculated as mean of the scores for 5 lung sections and trachea.

[5] = BAL fluid, BALBc mice, 4 mg/Kg intraperitoneally 30 minutes before OA inhalation provocation

CC(C)[C@@H](C)C=C[C@@H](C)[C@H]1CC[C@H]2C3=C[C@@H](O)[C@@]4(O)C[C@@H](O)CC[C@]4(C)[C@H]3CC[C@]12C [F8, (24R)-ergosta-7,22-diene-3β, 5α, 6β,-triol]
Inhibitory Activity (%) [1]: 97±2.6%
Eosinophil Cell count [2, 5]: 0.12 ± 0.04 (×10^4)/mL
Eosinophil Percentage of total cell count (%) [2, 5]: 6.3 ± 1.6 %
Lymphocyte Cell count [2, 5]: 0.10 ± 0.04 (×10^4)/mL
Lymphocyte Percentage of total cell count (%) [2, 5]: 5.2 ± 1.6 %
Macrophage Cell count [2, 5]: 1.82 ± 0.21 (×10^4)/mL
Macrophage Percentage of total cell count (%) [2, 5]: 84.2 ± 3.4 %
Neutrophil Cell count [2, 5]: 0.13 ± 0.03 (×10^4)/mL
Neutrophil Percentage of total cell count (%) [2, 5]: 5.1 ± 1.0 %
Total cell count [2, 5]: 2.23 ± 0.64 (×10^4)/mL
BAL total cell counts, eosinophils and lymphocytes versus group II ([2]; mice, treatment study (administered after OA challenge)): Group II had higher total cell counts than other 2 groups
Th1 cytokines expression [3]: enhance Th1 cytokines expression
Th2 cytokines and iNOS gene mRNA expression [3]: decrease Th2 cytokines and INOS gene mRNA expression
pulmonary histological change [4]: improve pulmonary histological change
